In brackets after ≈: the same amount, converted by molar mass. Entries after “also recorded” stand apart in the source; their conditions may differ. Counter-ions that a name gives are not always drawn.
Tests used:
[1] = test system: Slc:ddY mice; test: Central toxicity after cisternal administration, alone or combined with biphenylacetic acid; format: in vivo; settings: 5 μg/mouse
Method: Slc:ddY mice (male; 3 weeks old) were used in groups of ten. Compound (1) was dissolved in distilled water in order to prepare injections, and the resultant solution was cisternally administered in a volume of […]. To the members of the group where compound (1) and biphenylacetic acid were used in combination, biphenylacetic acid (400 mg/kg) was perorally administered first, and 30 minutes following the administration, compound (1) was cisternally administered in a manner similar to that employed for the single use of compound (1).

[2] = test system: E. coli, NIHJ; test: Antibacterial activity (MIC), Japanese Society of Chemotherapy standard method; format: cell-based; settings: Escherichia coli
Method: (§1) Antibacterial activity was investigated by comparing compound (1) with comparative compounds B and C (see next page). This test was performed according to the standard method recommended by Japanese Society of Chemotherapy.

[3] = test system: Ps. aeruginosa, 32104; test: as above; format: cell-based; settings: Pseudomonas aeruginosa
Method: as §1

[4] = test system: S. aureus, 209P; test: as above; format: cell-based; settings: Staphylococcus aureus
Method: as §1

[5] = test system: Ps. aeruginosa, 32121; test: as above; format: cell-based; settings: Pseudomonas aeruginosa
Method: as §1

[6] = test system: S. epidermidis, 56500; test: as above; format: cell-based; settings: Staphylococcus epidermidis
Method: as §1

[7] = test system: Pr. vulgaris, 08601; test: as above; format: cell-based; settings: Proteus vulgaris
Method: as §1

[8] = test system: Ser. marcescens, 10100; test: as above; format: cell-based; settings: Serratia marcescens
Method: as §1

[9] = test system: Str. faecalis, ATCC 19433; test: as above; format: cell-based; settings: Enterococcus faecalis, ATCC19433
Method: as §1

[10] = test system: E. coli strain E77156; test: Infection-preventing effect on mouse sepsis model (E. coli); format: in vivo; settings: Slc:ddY mice, intraperitoneal E. coli E77156 8.08×10^7 CFU/mouse, single tail vein injection
Method: (§2) Groups of Slc:ddY mice, each group consisting of 7 mice, were used in the test. The mice were intraperitoneally inoculated with methicillin-resistant Staphylococcus aureus (MRSA) strain 7866 (1.07×10^8 CFU/mouse) or E. coli strain E77156 (8.08×10^7 CFU/mouse). Compound (1) was given as a single injection into the tail vein of each mouse immediately after infection. On the basis of the survival count on day 7 after infection, 50% efficacy was calculated using the probit method, to thereby evaluate the efficacy.

[11] = Solubility in water; format: physicochemical
Text: Solubility of compound (1) in water was investigated.

[12] = test system: methicillin-resistant Staphylococcus aureus (MRSA) strain 7866; test: Infection-preventing effect on mouse sepsis model (MRSA); format: in vivo; settings: Slc:ddY mice, intraperitoneal MRSA 7866 1.07×10^8 CFU/mouse, single tail vein injection
Method: as §2

[13] = test system: arthrodial cartilage of young beagles; test: Articular toxicity in young beagles, peroral for eight days; format: in vivo; settings: 7.5 mg/kg, 15 mg/kg and 30 mg/kg
Text: Groups of young beagles (male; 3-4 months old), each group consisting of 3 dogs, were used in the test. Compound (1) was perorally administered to each dog for eight days. Thereafter, important diarthroses were pathologically examined. […] Thus, articular toxicity of compound (1) is quite weak and insignificant, proving that compound (1) is a very safe compound.

[14] = test system: pneumococcus SPI-13; test: Therapeutic effect on mouse pneumonia model with pneumococcus of low penicillin sensitivity; format: in vivo; settings: CBA/J mice
Method: Groups of CBA/J mice, each group consisting of 5 mice, were used in the test. The mice were nasally infected with pneumococcus SPI-13 at 5.3×10^6 CFU/mouse. Compound (1) was subcutaneously administered to each mouse at doses of 7.5 mg/kg, 15 mg/kg, or 30 mg/kg, for three consecutive days from the day following infection, twice a day at an interval of 6 hours. The efficacy of compound (1) was assessed by counting the number of the intrapulmonary bacteria on the day following the final administration.

[15] = Storage stability for one week (heat, humidity, light), residual amount by liquid chromatography; format: physicochemical
Method: Compound (1) (1.5 mg) was stored for one week under the following conditions: (1) in a sealed bottle at 70° C., (2) in an open-air state at 50° C., 75% RH (NaCl), or (3) irradiation with light at 100,000 lx·h (2,500 lx×40 h). Subsequently, the residual amount of compound (1) was quantitatively determined by means of liquid chromatography.

[16] = Moisture absorption/desorption (moisture absorption analyzer, weight change at 5-95% RH); format: physicochemical; settings: 25° C., relative humidity 5-95% RH; monohydrochloride monohydrate
Method: Moisture absorption/desorption of compound (1) was investigated by using samples each weighing approximately 10 mg and a moisture absorption analyzer manufactured by VTI (model SGA-100). The measurement was performed at 25° C., and the relative humidity was changed in the range of 5% to 95% at intervals of 5% or 10%. When the weight change of a sample is 0.03% or less within 30 minutes, the sample is considered to be in a state of equilibrium, and in this test, the longest equilibrium time was set to be 180 minutes. The weight change of each sample at different relative humidities was determined.

[17] = test system: Balb/c mice; test: Phototoxicity: intravenous administration, then UV-A exposure; format: in vivo; settings: intravenous 100 mg/kg, UV-A 20 J/cm^2 for four hours
Method: Groups of Balb/c mice (female; 5 weeks old), each group consisting of 5-6 mice, were used in the test. After compound (1) was intravenously administered to each mouse, the mouse was exposed to long-wavelength UV light (UV-A) (20 J/cm^2) for four hours. Thereafter, the auricle was visually observed for 96 hours. Subsequently the mouse was sacrificed for examination of the tissue. […] Thus, compound (1) is a very safe compound, being free from phototoxicity, which is often observed with quinolone-based antibacterial agents.

[18] = Stability of acid addition salts of compound (1a) under various levels of humidity; settings: high-humidity conditions
[19] = combined: biphenylacetic acid 400 mg/kg perorally 30 minutes before cisternal administration
[20] = solo cisternal administration, groups of ten

Structure (SMILES)	Death [1, 19]	Death [1, 20]	Spasm [1, 20]	MIC [2] [µg/mL]	MIC [3] [µg/mL]	MIC [4] [µg/mL]	MIC [5] [µg/mL]	MIC [6] [µg/mL]	MIC [7] [µg/mL]	MIC [8] [µg/mL]	MIC [9] [µg/mL]	other results
COc1c(N2C[C@@H](N)[C@@H](C)C2)c(F)cc2c(=O)c(C(=O)O)cn([C@@H]3C[C@@H]3F)c12 [Comparative Compound A, reference compound]	two	one	two	–	–	–	–	–	–	–	–	–
CCOc1c(N2C[C@@H](N)C3(CC3)C2)c(F)cc2c(=O)c(C(=O)O)cn([C@@H]3C[C@@H]3F)c12 [Comparative Compound B]	–	–	–	0.006 (≈ 0.0143 µM)	0.39 (≈ 0.93 µM)	0.025 (≈ 0.0596 µM)	0.2 (≈ 0.477 µM)	0.1 (≈ 0.238 µM)	0.05 (≈ 0.119 µM)	0.2 (≈ 0.477 µM)	0.2 (≈ 0.477 µM)	–
CCOc1c(N2CC(C)C(N)C2)c(F)cc2c(=O)c(C(=O)O)cn([C@@H]3C[C@@H]3F)c12 (stereo partly shown) [Comparative Compound C]	–	–	–	0.025 (≈ 0.0614 µM)	0.78 (≈ 1.91 µM)	0.05 (≈ 0.123 µM)	0.39 (≈ 0.957 µM)	0.2 (≈ 0.491 µM)	0.05 (≈ 0.123 µM)	0.2 (≈ 0.491 µM)	0.39 (≈ 0.957 µM)	–
COc1c(N2C[C@@H](N)C3(CC3)C2)c(F)cc2c(=O)c(C(=O)O)cn([C@@H]3C[C@@H]3F)c12 [Compound (1), (−)-7-[(7S)-7-amino-5-azaspiro[2.4]heptan-5-yl]-6-fluoro-1-[(1R, 2S)-2-fluoro-1-cyclopropyl]-1,4-dihydro-8-methoxy-4-oxo-3-quinolinecarboxylic acid monohydrochloride monohydrate]	neither spasm nor death	neither spasm nor death	neither spasm nor death	≤ 0.003	0.2	0.006	0.05	0.05	0.012	0.05	0.1	50% efficacy (probit method, survival count on day 7) [10]: 0.57 mg/kg; solubility [11]: ≥ 100 mg/mL; 50% efficacy (probit method, survival count on day 7) [12]: 3.34 mg/kg; Formation of blebs or erosions in arthrodial cartilage [13]: not at all observed; Number of intrapulmonary bacteria ([14]; subcutaneous 7.5 mg/kg twice a day for three days): approximately half that of the control; Number of intrapulmonary bacteria ([14]; subcutaneous 15 mg/kg twice a day for three days): below the detection limit; Number of intrapulmonary bacteria ([14]; subcutaneous 30 mg/kg twice a day for three days): below the detection limit; Stability when exposed to light, compared with compound No. 26bb ([15]; light 100,000 lx·h (2,500 lx×40 h)): superior to that of compound No. 26bb; Stability (residual amount by liquid chromatography) ([15]; one week: sealed bottle 70° C., open 50° C., 75% RH, light 100,000 lx·h): remained stable, not undergoing any decomposition; Moisture absorption/desorption (weight change) [16]: neither absorbing or desorbing moisture; also recorded: do not absorb or desorb moisture; Spasm [1, 19]: neither spasm nor death; Phototoxicity: abnormality of auricle (visual observation 96 hours, tissue examination) [17]: no abnormality was observed
COc1c(N2C[C@@H](N)C3(CC3)C2)c(F)cc2c(=O)c(C(=O)O)cn([C@@H]3C[C@@H]3F)c12.CS(=O)(=O)O [methanesulfonic acid salt, Methanesulfonic Acid Salt of (−)-7-{(7S)-7-amino-5-azaspiro[2.4]heptan-5-yl}-6-fluoro-1-[(1R, 2S)-2-fluoro-1-cyclopropyl]-1,4-dihydro-8-methoxy-4-oxo-3-quinolinecarboxylic acid]	–	–	–	–	–	–	–	–	–	–	–	Stability under various levels of humidity [18]: tendency toward moisture absorption
